Reference: patent US10568899B2, “Combinations of a mithramycin analogue and another chemotherapeutic agent for the treatment of triple negative breast cancer” (ENTRECHEM, S.L., priority 2015, dated 2020)

Experiments:
[1] = tested on: MDA-MB-231 xenografted tumors; assay: Xenograft study, tumour volume; assay type: in vivo, mice; details: F(I) 12 mg/kg intravenously every 3 days; FIG. 2
Procedure: Mice were manipulated at the animal facility of the CIC in Salamanca following legal guidelines. Female BALB/c nu/nu mice (7 weeks old) were obtained from Charles River Laboratories (Wilmington, Mass., USA). A total of 5×10^6 MDA-MB231 cells in 100 μL of DMEM and 100 μL of Matrigel (BD Biosciences) were injected subcutaneously into the right and left flank of each mouse. When tumours reached a mean volume of 100 mm^3, animals (n=32) were randomized into four groups (with equal average tumour volumes) (vehicle n=8, F(I) n=8, docetaxel n=8, and F(I)+docetaxel n=8). […] Tumour diameters were serially measured by callipers twice per week and tumour volumes were calculated by the following formula: volume=width^2×length/2. Mice were sacrificed on day 41. For biochemical and drug accumulation analyses, tumor samples were obtained after sacrifice of the animals by CO2 inhalation, and 6 hours after being treated with the different drugs, and immediately frozen in liquid nitrogen. The tumors were minced, washed with PBS, and homogenized (Dispomix, L&M Biotech, Holly Springs, N.C., USA) in ice-cold lysis buffer (1.5 mL/100 mg tumor). […]
Comparisons of continuous variables between two groups for the mice tumor model experiments were performed using a two-sided Student's t-test. […] All data were analyzed using the statistical software SPSS 21.0 (SPSS Inc., Chicago, Ill.). […]

[2] = cited from earlier work
[3] = tested on: TNBC cell lines (HCC-70, HCC-3153, BT549, MDA-MB-231, HCC-1937, HBL-100, HCC-1187 and HS578T); assay: MTT metabolism in panel of TNBC cell lines; assay type: cell-based
Procedure: (§1) All cell lines were cultured at 37° C. in a humidified atmosphere in the presence of a mixture of 5% CO2 and 95% air. Cells were grown in DMEM or in RPMI medium containing high glucose concentration (4,500 mg/liter) and antibiotics (penicillin at 100 mU/ml, streptomycin at 100 μg/ml) and supplemented with 10% FBS. Cell lines were provided by Drs. J. Losada and A. Balmain, (originally from Dr. J. W. Gray's Laboratory who in turn obtained them from the ATCC or from collections development in the laboratories of Drs. S. Ethier and A. Gazdar, to avoid errors occurring when obtained through “second-hand” sources) [Cancer Cell. (2006) 10:515-527]. Cell identities were verified by STR analyses [Oncogene (2014) 33:148-156].
Cells were plated in 24-well plates at 10,000-20,000 cells/well and cultured overnight in DMEM or RPMI+10% FBS. The next day medium was replaced with DMEM or RPMI containing different concentrations of F(I). Cell proliferation was analyzed 48 and 72 hours later by an MTT-based assay as described in Cancer Res. (2005) 65:6801-6810. […]
To analyze the potential antineoplastic effect of F(I) on TNBC, its action on a panel of eight representative TNBC cell lines (HCC-70, HCC-3153, BT549, MDA-MB-231 (MDAMB231), HCC-1937, HBL-100 (HBL100), HCC-1187 and HS578T) using MTT metabolism as readout of the effect of F(I) on cell number was evaluated. […]

[4] = F(I) concentration in the tumors; assay type: in vivo; details: 6 hours after the last treatment, F(I) 12 mg/kg intravenously, two tumors from two different mice
Procedure: (§2) Mice were manipulated at the animal facility of the CIC in Salamanca following legal guidelines. Female BALB/c nu/nu mice (7 weeks old) were obtained from Charles River Laboratories (Wilmington, Mass., USA). A total of 5×10^6 MDA-MB231 cells in 100 μL of DMEM and 100 μL of Matrigel (BD Biosciences) were injected subcutaneously into the right and left flank of each mouse. When tumours reached a mean volume of 100 mm^3, animals (n=32) were randomized into four groups (with equal average tumour volumes) (vehicle n=8, F(I) n=8, docetaxel n=8, and F(I)+docetaxel n=8). Mice were treated every four days intravenously with 12 mg/kg of F(I), and weekly, intraperitoneally with docetaxel 15 mg/kg. Tumour diameters were serially measured by callipers twice per week and tumour volumes were calculated by the following formula: volume=width^2×length/2. Mice were sacrificed on day 41. For biochemical and drug accumulation analyses, tumor samples were obtained after sacrifice of the animals by CO2 inhalation, and 6 hours after being treated with the different drugs, and immediately frozen in liquid nitrogen. The tumors were minced, washed with PBS, and homogenized (Dispomix, L&M Biotech, Holly Springs, N.C., USA) in ice-cold lysis buffer (1.5 mL/100 mg tumor). This homogenate was centrifuged at 10,000×g for 20 minutes at 4° C., and the supernatants were transferred to new tubes. […]

[5] = tested on: HBL-100 cells; assay: MTT-based cell proliferation assay, single drugs and combinations (CI by CalcuSyn)
Procedure: as §1
(§3) Cells were plated in 24-well plates at 10,000-20,000 cells/well and cultured overnight in DMEM or RPMI+10% FBS. […] Cell proliferation was analyzed 48 and 72 hours later by an MTT-based assay as described in Cancer Res. (2005) 65:6801-6810.
(§4) Results are plotted as the mean±SD values of quadruplicates from two experiments.
(§5) To explore whether F(I) potentiated the action of drugs used in the therapy of TNBC, drug combination experiments were performed, and the results analyzed by the Chou and Talalay algorithm [Adv. Enzyme Regul.

[6] = tested on: MDA-MB-231 cells; assay: as above
Procedure: as §1, §3, §4, §5

[7] = Body weight of treated mice; assay type: in vivo
Procedure: as §2

## CO[C@@H]([C@@H]1Cc2cc3cc(O[C@H]4CC(O[C@H]5CC(O)[C@H](O)C(C)O5)[C@H](O)C(C)O4)c(C)c(O)c3c(O)c2C(=O)[C@H]1O[C@H]1CC(O[C@H]2CC(O[C@H]3CC(O)[C@H](O)C(C)O3)[C@@H](O)C(C)O2)[C@H](O)C(C)O1)[C@@H](O)C(C)=O (stereo partly drawn) [F(I), demycarosyl-3D-β-D-digitoxosyl-mithramycin SK]
[1]
  Effect on tumor growth: inhibitory effect on tumor growth
[2]
  Toxicity in vivo relative to mithramycin (times less toxic): 10 times
[3]; 72 hours of treatment, all cell lines (FIG. 1)
  IC50: < 100 nM
[3]; all the TNBC cell lines studied, 48 or 72 hours, different doses
  Effect on MTT metabolism: decreased MTT metabolism of all the TNBC cell lines studied in a dose-dependent and time-dependent manner
[4]
  F(I) concentration in the tumors: 2.2 µg/g
[4]; female, BALB/c nu/nu, mouse, tumor, iv, 12 mg/kg
  concentration at 6 h: 3800 ng/g
[5]; F(I) 10 nM alone
  MTT metabolism mean, Assay 1: 85.52%
  MTT metabolism mean, Assay 2: 99.53%
[5]; F(I) 50 nM alone
  MTT metabolism mean, Assay 1: 66.35%
  MTT metabolism mean, Assay 2: 62.85%
[6]; F(I) 10 nM alone
  MTT metabolism mean, Assay 1: 94.27%
  MTT metabolism mean, Assay 2: 96.65%
[6]; F(I) 50 nM alone
  MTT metabolism mean, Assay 1: 70.05%
  MTT metabolism mean, Assay 2: 59.26%
[7]; F(I) 12 mg/kg, FIG. 3
  Body weight: slight decrease initially
[7]; alone or in combination, suggested by body weights, FIG. 6
  Tolerability: well tolerated

## CC(=O)O[C@@]12CO[C@@H]1C[C@H](O)[C@@]1(C)C(=O)[C@H](O)C3=C(C)[C@@H](OC(=O)[C@H](O)[C@@H](NC(=O)OC(C)(C)C)c4ccccc4)C[C@@](O)([C@@H](OC(=O)c4ccccc4)[C@H]21)C3(C)C [Docetaxel, docetaxel]
[5]; Docetaxel 2.5 nM alone
  MTT metabolism mean, Assay 1: 96.93%
  MTT metabolism mean, Assay 2: 83.41%
[5]; Docetaxel 5 nM alone
  MTT metabolism mean, Assay 1: 85.11%
  MTT metabolism mean, Assay 2: 70.61%
[5]; Docetaxel 10 nM alone
  MTT metabolism mean, Assay 1: 55.03%
  MTT metabolism mean, Assay 2: 54.59%
[6]; Docetaxel 2.5 nM alone
  MTT metabolism mean, Assay 1: 84.46%
  MTT metabolism mean, Assay 2: 60.92%
[6]; Docetaxel 5 nM alone
  MTT metabolism mean, Assay 1: 69.03%
  MTT metabolism mean, Assay 2: 51.36%
[6]; Docetaxel 10 nM alone
  MTT metabolism mean, Assay 1: 38.17%
  MTT metabolism mean, Assay 2: 44.50%

## Nc1ccn([C@@H]2O[C@H](CO)[C@@H](O)C2(F)F)c(=O)n1 [Gemcitabine, gemcitabine]
[5]; Gemcitabine 5 nM alone
  MTT metabolism mean, Assay 1: 90.75%
  MTT metabolism mean, Assay 2: 88.93%
[5]; Gemcitabine 10 nM alone
  MTT metabolism mean, Assay 1: 85.93%
  MTT metabolism mean, Assay 2: 83.52%
[5]; Gemcitabine 20 nM alone
  MTT metabolism mean, Assay 1: 61.98%
  MTT metabolism mean, Assay 2: 80.59%
[6]; Gemcitabine 5 nM alone
  MTT metabolism mean, Assay 1: 77.29%
  MTT metabolism mean, Assay 2: 90.99%
[6]; Gemcitabine 10 nM alone
  MTT metabolism mean, Assay 1: 67.76%
  MTT metabolism mean, Assay 2: 84.33%
[6]; Gemcitabine 20 nM alone
  MTT metabolism mean, Assay 1: 48.14%
  MTT metabolism mean, Assay 2: 64.95%

## Cc1nc(Nc2ncc(C(=O)Nc3c(C)cccc3Cl)s2)cc(N2CCN(CCO)CC2)n1 [Dasatinib, dasatinib]
[5]; Dasatinib 0.5 μM alone
  MTT metabolism mean, Assay 1: 61.25%
  MTT metabolism mean, Assay 2: 65.30%
[5]; Dasatinib 1.0 μM alone
  MTT metabolism mean, Assay 1: 61.08%
  MTT metabolism mean, Assay 2: 64.94%
[5]; Dasatinib 2.0 μM alone
  MTT metabolism mean, Assay 1: 58.58%
  MTT metabolism mean, Assay 2: 58.48%
[6]; Dasatinib 0.5 μM alone
  MTT metabolism mean, Assay 1: 65.29%
  MTT metabolism mean, Assay 2: 62.89%
[6]; Dasatinib 1.0 μM alone
  MTT metabolism mean, Assay 1: 59.58%
  MTT metabolism mean, Assay 2: 63.07%
[6]; Dasatinib 2.0 μM alone
  MTT metabolism mean, Assay 1: 56.05%
  MTT metabolism mean, Assay 2: 55.89%

## CCC1=C[C@@H]2CN(C1)Cc1c([nH]c3ccccc13)[C@@](C(=O)OC)(c1cc3c(cc1OC)N(C)[C@H]1[C@@](O)(C(=O)OC)[C@H](OC(C)=O)[C@]4(CC)C=CCN5CC[C@]31[C@@H]54)C2 [Vinorelbine, vinorelbine]
[6]; Vinorelbine 1 nM alone
  MTT metabolism mean, Assay 1: 94.11%
  MTT metabolism mean, Assay 2: 73.02%
[6]; Vinorelbine 3 nM alone
  MTT metabolism mean, Assay 1: 84.61%
  MTT metabolism mean, Assay 2: 71.99%
[6]; Vinorelbine 5 nM alone
  MTT metabolism mean, Assay 1: 84.42%
  MTT metabolism mean, Assay 2: 56.42%
